# Where two headings read alike, the source gives them in different places.
# Key:
# [1] = system: Acinetobacter calcoaceticus ATCC 15473; test: Antibacterial activity, MIC; assay type: cell-based; settings: ATCC15473, ATCC 15473, agar two-fold dilution, 37° C., 20 hours, read-out: MIC
# Procedure: (§1) Also, the in vitro antibacterial activity was determined by the by a two-fold dilution method as described below:
# (§2) That is, the two-fold serial dilutions of the compound were made dispersed in Muller-Hinton agar medium. 2 μl of standard test strain which had the 10^7 CFU per ml was inoculated on the medium, and was incubated at 37° C. for 20 hours.
# [2] = system: Bacillus cereus ATCC 11778; test: Antibacterial activity, MIC; assay type: cell-based; settings: ATCC11778, ATCC 11778, agar two-fold dilution, 37° C., 20 hours, read-out: MIC
# Procedure: as §1, §2
# [3] = system: Bacillus megaterium ATCC 9885; test: Antibacterial activity, MIC; assay type: cell-based; settings: Priestia megaterium, ATCC9885; ATCC 9885; agar two-fold dilution, 37° C., 20 hours; read-out: MIC
# Procedure: as §1, §2
# [4] = system: Citrobacter freundii ATCC 8090; test: Antibacterial activity, MIC; assay type: cell-based; settings: ATCC8090, ATCC 8090, agar two-fold dilution, 37° C., 20 hours, read-out: MIC
# Procedure: as §1, §2
# [5] = system: Enterobacter aerogenes ATCC 29751; test: Antibacterial activity, MIC; assay type: cell-based; settings: Klebsiella aerogenes, ATCC29751; ATCC 29751; agar two-fold dilution, 37° C., 20 hours; read-out: MIC
# Procedure: as §1, §2
# [6] = system: Enterobacter cloacae ATCC 27508; test: Antibacterial activity, MIC; assay type: cell-based; settings: ATCC27508, ATCC 27508, agar two-fold dilution, 37° C., 20 hours, read-out: MIC
# Procedure: as §1, §2
# [7] = system: Escherichia coli ATCC 10536; test: Antibacterial activity, MIC; assay type: cell-based; settings: ATCC10536, agar two-fold dilution, 37° C., 20 hours
# Procedure: as §1, §2
# [8] = system: Escherichia coli ATCC 25922; test: Antibacterial activity, MIC; assay type: cell-based; settings: ATCC25922, agar two-fold dilution, 37° C., 20 hours
# Procedure: as §1, §2
# [9] = system: Klebsiella pneumoniae ATCC 10031; test: Antibacterial activity, MIC; assay type: cell-based; settings: ATCC10031, ATCC 10031, agar two-fold dilution, 37° C., 20 hours, read-out: MIC
# Procedure: as §1, §2
# [10] = system: Micrococcus luteus ATCC 9341; test: Antibacterial activity, MIC; assay type: cell-based; settings: ATCC9341, ATCC 9341, agar two-fold dilution, 37° C., 20 hours, read-out: MIC
# Procedure: as §1, §2
# [11] = system: Morganella morganii ATCC 8076h; test: Antibacterial activity, MIC; assay type: cell-based; settings: ATCC8076H, agar two-fold dilution, 37° C., 20 hours
# Procedure: as §1, §2
# [12] = system: Proteus mirabilis ATCC 25933; test: Antibacterial activity, MIC; assay type: cell-based; settings: ATCC25933, ATCC 25933, agar two-fold dilution, 37° C., 20 hours, read-out: MIC
# Procedure: as §1, §2
# [13] = system: Proteus vulgaris ATCC 6059; test: Antibacterial activity, MIC; assay type: cell-based; settings: ATCC6059, ATCC 6059, agar two-fold dilution, 37° C., 20 hours, read-out: MIC
# Procedure: as §1, §2
# [14] = system: Providencia rettgeri ATCC 9250; test: Antibacterial activity, MIC; assay type: cell-based; settings: ATCC9250, agar two-fold dilution, 37° C., 20 hours
# Procedure: as §1, §2
# [15] = system: Pseudomonas aeruginosa ATCC 10145; test: Antibacterial activity, MIC; assay type: cell-based; settings: ATCC10145, ATCC 10145, agar two-fold dilution, 37° C., 20 hours, read-out: MIC
# Procedure: as §1, §2
# [16] = system: Pseudomonas aeruginosa ATCC 25619; test: Antibacterial activity, MIC; assay type: cell-based; settings: ATCC25619, ATCC 25619, agar two-fold dilution, 37° C., 20 hours, read-out: MIC
# Procedure: as §1, §2
# [17] = system: Pseudomonas aeruginosa ATCC 27853; test: Antibacterial activity, MIC; assay type: cell-based; settings: ATCC27853, ATCC 27853, agar two-fold dilution, 37° C., 20 hours, read-out: MIC
# Procedure: as §1, §2
# [18] = system: Salmonella typhimurium ATCC 14028; test: Antibacterial activity, MIC; assay type: cell-based; settings: Salmonella enterica; ATCC 14028; agar two-fold dilution, 37° C., 20 hours; read-out: MIC
# Procedure: as §1, §2
# [19] = system: Serratia marcescens ATCC 27117; test: Antibacterial activity, MIC; assay type: cell-based; settings: ATCC27117, ATCC 27117, agar two-fold dilution, 37° C., 20 hours, read-out: MIC
# Procedure: as §1, §2
# [20] = system: Shigella flexneri ATCC 11836; test: Antibacterial activity, MIC; assay type: cell-based; settings: ATCC11836, agar two-fold dilution, 37° C., 20 hours
# Procedure: as §1, §2
# [21] = system: Shigella sonnei ATCC 11060; test: Antibacterial activity, MIC; assay type: cell-based
# Procedure: as §1, §2
# [22] = system: Staphylococcus aureus ATCC 10537; test: Antibacterial activity, MIC; assay type: cell-based; settings: ATCC10537, ATCC 10537, agar two-fold dilution, 37° C., 20 hours, read-out: MIC
# Procedure: as §1, §2
# [23] = system: Staphylococcus aureus ATCC 6538p; test: Antibacterial activity, MIC; assay type: cell-based; settings: ATCC6538P, ATCC 6538p, agar two-fold dilution, 37° C., 20 hours, read-out: MIC
# Procedure: as §1, §2
# [24] = system: Staphylococcus epidermidis ATCC 12228; test: Antibacterial activity, MIC; assay type: cell-based; settings: ATCC12228, ATCC 12228, agar two-fold dilution, 37° C., 20 hours, read-out: MIC
# Procedure: as §1, §2
# [25] = system: Streptococcus faecalis ATCC 29212; test: Antibacterial activity, MIC; assay type: cell-based; settings: Enterococcus faecalis, ATCC29212; ATCC 29212; agar two-fold dilution, 37° C., 20 hours; read-out: MIC
# Procedure: as §1, §2
# [26] = In-vivo absorbency (plasma concentrations & pharmacokinetic parameters); design: species or system SD rat (male); settings: plasma, SD male rat, iv 20 mg/kg; for concentration at 1 h: 60 min; for concentration at 1 h / concentration at 2 h: read-out: Plasma Conc.; for concentration at 2 h: 120 min; for AUC / half-life: two compartment model; for half-life: rat, iv, 20 mg/kg
# Description: The blood samples from the femoral vein of the rats were taken every hour after administration, and analyzed by bio-assay(agar well method).
# Tested animal: SD male Rat (220~340 g)
# [27] = as above; design: species or system SD rat (male); settings: plasma, SD male rat, iv 20 mg/kg, read-out: Plasma Conc.
# [28] = ATCC11060, ATCC 11060, agar two-fold dilution, 37° C., 20 hours, read-out: MIC
SMILES,MIC [1],MIC [2],MIC [4],MIC [5],MIC [6],MIC [7],MIC [8],MIC [9],MIC [10],MIC [11],MIC [12],MIC [13],MIC [14],MIC [15],MIC [16],MIC [17],MIC [18],MIC [19],MIC [20],MIC [22],other results
CO/N=C(\C(=O)NC1C(=O)N2C(C(=O)[O-])=C(CSc3nc(N)cc(N)[n+]3C)CSC12)c1csc(N)n1 (stereo not shown) [Compound I-10],8 µg/mL,32 µg/mL,0.063 µg/mL,0.5 µg/mL,≤ 0.008 µg/mL,0.063 µg/mL,0.063 µg/mL,0.016 µg/mL,0.063 µg/mL,≤ 0.008 µg/mL,0.13 µg/mL,0.13 µg/mL,≤ 0.008 µg/mL,32 µg/mL,2 µg/mL,8 µg/mL,0.25 µg/mL,0.063 µg/mL,0.016 µg/mL,0.25 µg/mL,"MIC [3]: 0.25 µg/mL; MIC [21, 28]: 0.063 µg/mL; MIC [23]: 0.25 µg/mL; MIC [24]: 0.13 µg/mL"
CCO/N=C(\C(=O)NC1C(=O)N2C(C(=O)[O-])=C(CSc3nc(N)cc(N)[n+]3C)CSC12)c1csc(N)n1 (stereo not shown) [Compound I-11],4 µg/mL,32 µg/mL,0.063 µg/mL,0.5 µg/mL,≤ 0.008 µg/mL,0.13 µg/mL,0.13 µg/mL,0.016 µg/mL,0.016 µg/mL,≤ 0.008 µg/mL,0.25 µg/mL,0.25 µg/mL,≤ 0.008 µg/mL,8 µg/mL,2 µg/mL,4 µg/mL,0.25 µg/mL,0.13 µg/mL,0.031 µg/mL,0.25 µg/mL,"MIC [3]: 0.13 µg/mL; MIC ([21]; ATCC11060, 20 h): 0.13 µg/mL; MIC [23]: 0.25 µg/mL; MIC [24]: 0.063 µg/mL"
CCc1c(N)nc(SCC2=C(C(=O)[O-])N3C(=O)C(NC(=O)/C(=N\OC(C)(C)C(=O)O)c4csc(N)n4)C3SC2)[n+](C)c1N (stereo not shown) [Compound I-31],8 µg/mL,128 µg/mL,0.13 µg/mL,2 µg/mL,0.016 µg/mL,0.063 µg/mL,0.13 µg/mL,0.063 µg/mL,0.5 µg/mL,≤ 0.008 µg/mL,0.031 µg/mL,0.063 µg/mL,≤ 0.008 µg/mL,4 µg/mL,1 µg/mL,2 µg/mL,0.25 µg/mL,0.25 µg/mL,0.063 µg/mL,4 µg/mL,"MIC [21, 28]: 0.063 µg/mL; MIC [23]: 4 µg/mL; MIC [24]: 2 µg/mL; MIC [25]: > 128 µg/mL; concentration at 1 h [26]: 7700 ng/mL; concentration at 2 h [26]: 1600 ng/mL; AUC [26]: 30500 ng·h/mL; half-life ([26]; read-out: T1/2 (α)): 6 min; half-life ([26]; read-out: T1/2 (β)): 27 min; concentration at 0.5 min [27]: 208000 ng/mL; concentration at 2.5 min [27]: 85000 ng/mL; concentration at 5 min [27]: 62000 ng/mL; concentration at 10 min [27]: 45000 ng/mL; concentration at 20 min [27]: 30000 ng/mL; concentration at 40 min [27]: 14000 ng/mL"
CC[n+]1c(SCC2=C(C(=O)[O-])N3C(=O)C(NC(=O)/C(=N\OC(C)(C)C(=O)O)c4csc(N)n4)C3SC2)nc(N)c(C)c1N (stereo not shown) [Compound I-32],8 µg/mL,64 µg/mL,0.13 µg/mL,2 µg/mL,0.016 µg/mL,0.13 µg/mL,0.13 µg/mL,0.063 µg/mL,0.25 µg/mL,≤ 0.008 µg/mL,0.031 µg/mL,0.063 µg/mL,≤ 0.008 µg/mL,4 µg/mL,2 µg/mL,2 µg/mL,0.25 µg/mL,0.13 µg/mL,0.031 µg/mL,2 µg/mL,"MIC [21, 28]: 0.13 µg/mL; MIC [23]: 4 µg/mL; MIC [24]: 1 µg/mL; MIC [25]: > 128 µg/mL; concentration at 1 h [26]: 7500 ng/mL; concentration at 2 h [26]: 1800 ng/mL; AUC [26]: 30500 ng·h/mL; half-life ([26]; read-out: T1/2 (α)): 3 min; half-life ([26]; read-out: T1/2 (β)): 29 min; concentration at 0.5 min [27]: 162000 ng/mL; concentration at 2.5 min [27]: 75000 ng/mL; concentration at 5 min [27]: 53000 ng/mL; concentration at 10 min [27]: 35000 ng/mL; concentration at 20 min [27]: 21000 ng/mL; concentration at 40 min [27]: 13000 ng/mL"

# From patent publication US5202315A, “Cephalosporin compounds” (Lucky, Ltd., priority 1989, dated 1993)
